A short description of this data set: in vitro. As to conditions: human, hela cells, % viability.

This is an account of results in paper PMC12040169 (PLOS Biology, 2025).

The term viability denotes a read-out of living cells in per cent, often relative to untreated cells. On to `CS(=O)(=O)c1ccc(-c2ccc3c(c2)CN(C2CCN(C(=O)c4ccccc4)CC2)CCO3)cc1` [CBK169265], for which the viability at 28.5 h, 10 µM worked out at 103%.
As to `O=S1(=O)N=C(c2c(O)nc3ccccc3c2O)Nc2ccccc21` [CBK019929], the viability at 28.5 h, 10 µM was found to be 90.7%.
On the same count and under the same terms, in the case of `COc1ccc(OC)c(NC(=O)c2ccccc2C(=O)O)c1` [CBK287082] it was 86.9%; in that of `COc1c(C)cc(Br)cc1C(=O)Nc1ccccc1-c1nc2ccccc2s1` [CBK267155], 99.8%; in that of `CC(C)S(=O)(=O)N1CCC(n2c(=O)[nH]c3ccccc32)CC1` [CBK149693], 101%.
Still for that read-out and setting: as for `CCOc1ccc(CC(=O)N2CCC(c3ccncc3)CC2)cc1` [CBK283596], the figure is 87.8%.
The same measure, in the same setting: in the case of `O=C(O)c1cccc(NC(=S)NC(=O)C(c2ccccc2)c2ccccc2)c1` [CBK265053] it was 107%.
In the case of `O=C(CSCc1nc2ccccc2[nH]1)Nc1ccc2ccccc2c1` [CBK263262], the viability at 28.5 h, 10 µM came out at 90.5%.
On the same count and under the same terms, in the case of `Cc1cc(Cl)ccc1CNC(=O)/C=C/c1ccc(C(C)C)cc1` [CBK149615] it was 85.2%; in that of `Cc1cccc(CNc2nccnc2-c2cccc(N)c2)c1` [CBK038080], 92.4%.
Still for that read-out and setting: in the case of `O=C(N/N=C/C=N/NC(=O)c1ccccc1O)c1ccccc1O` [CBK261430] it was 98.2%.
Same read-out and setting: in the case of `N#CCCN(CCc1ccccc1)S(=O)(=O)c1cccc2nsnc12` [CBK261138] it was 104%; in that of `O=C(/C=C/c1ccc(-c2ccccc2[N+](=O)[O-])o1)Nc1ccc(-c2nc3ncccc3o2)cc1` [CBK263434], 99.2%.
`CSCCN(CC(=O)O)Cc1ccccc1` [CBK005712]: the viability at 28.5 h, 10 µM stood at 91.1%.
On the same count and under the same terms, as for `CCn1c(CN2CCC(c3cc(O)nc(N)n3)C2)nc2c(F)cccc21` (stereo not drawn) [CBK304189], the figure is 87.5%.
On to `COc1ccc(C(=O)CCCN2CC3CCC(NC(=O)Nc4ccc(F)c(F)c4)CC3C2)cc1` (stereo not drawn) [CBK083514T], for which the viability at 28.5 h, 10 µM came to 109%.
Same read-out and setting: in the case of `CCn1c(=O)n(CC(=O)NCc2ccccc2)c2cccnc21` [CBK283824] it was 101%; in that of `O=C(NCCCN1CCOCC1)c1nn2c(C(F)(F)F)cc(-c3cccs3)nc2c1Cl` [CBK262553], 82%; in that of `O=C(CC(CN1CCN(c2cccc(Cl)c2)CC1)C(=O)O)NCc1ccccc1` (stereo not drawn) [CBK286787], 100%.
For `CCC(=O)N1CCCC1c1nc(C)c2c(n1)N(Cc1ccc(F)cc1)CCC2` (stereo not drawn) [CBK286247], the viability at 28.5 h, 10 µM came out at 104%.
Still for that read-out and setting: as for `Cn1cc(-c2nccnc2OCc2ccccn2)cn1` [CBK107067], the figure is 97.2%.
On the same count and under the same terms, as for `CCc1nn(CC(=O)NC2CC2)c(=O)c2cc3sccc3n12` [CBK284029], the figure is 88.7%; as for `COC(=O)c1sccc1NC(=O)Cn1nnc(-c2ccc(C)cc2)n1` [CBK267183], 98.4%; as for `CCOc1cc(S(=O)(=O)NCCCN2CCOCC2)ccc1Br` [CBK270111], 87.4%.
On to `CC(OC(=O)c1ccc2nccnc2c1)c1cccc([N+](=O)[O-])c1` (stereo not drawn) [CBK297901], for which the viability at 28.5 h, 10 µM was determined as 78.5%.
The same measure, in the same setting: as for `CC(C)(C)c1ccccc1NC(=O)N(CCN)Cc1cc(F)cc(F)c1` [CBK046263C], the figure is 98.6%; as for `COc1ccc(S(=O)(=O)N2CCC(C(=O)NC3(C(=O)O)CCCCC3)CC2)cc1OC` [CBK295646], 95.5%; as for `O=C(NC[C@H]1CCCN(C(=O)c2cccs2)C1)c1ccco1` [CBK284261], 94.6%.
Turning to `Nc1ncc(-c2cc3ccccc3o2)nc1-c1ccc(C=O)cc1` [CBK064126], the viability at 28.5 h, 10 µM amounted to 91.9%.
The same measure, in the same setting: as for `Cc1cccc2c(C(=O)NCc3ccc(S(N)(=O)=O)cc3)cc(-c3ccccc3Cl)nc12` [CBK267743], the figure is 93%; as for `CCN(CC)CCn1c2ccccc2c2nc3cc(C(=O)O)ccc3nc21` [CBK297496], 101%; as for `CCN1CCC2(C/C=C/CCOc3ccccc3C(=O)NCCCNC2=O)CC1` [CBK292060], 83.3%.
Still for that read-out and setting: as for `C=CCn1c(-c2sc(NC(=O)CN3C(=C)c4ccccc4C3=O)nc2C)n[nH]c1=S` [CBK297909], the figure is 84.4%; as for `CCn1cnc2c1CCC(CN/C(=N/C(=O)c1ccccc1)NC)C2` (stereo not drawn) [CBK010036], 103%; as for `CCOC(=O)N1CCN(C(=O)c2ccc(CS(=O)(=O)c3ccc(C)cc3)cc2)CC1` [CBK268659], 88.3%.
Same read-out and setting: in the case of `NC(C(=O)O)C(O)c1ccccc1[N+](=O)[O-]` (stereo not drawn) [CBK262389] it was 92.7%.
As to `O=C1NC(=S)N(c2ccccc2)C(=O)/C1=C\c1ccc(OCc2ccccc2)c(C(=O)O)c1` [CBK264265], the viability at 28.5 h, 10 µM (bulk resorufin, single well) came out at 99.1%.
Consider `Cc1ccc(C(=O)C(OC(=O)CN2C(=O)c3cccc([N+](=O)[O-])c3C2=O)c2ccccc2)cc1C` (stereo not drawn) [CBK265519], for which the viability at 28.5 h, 10 µM turned out to be 109%.
Take `Cc1nn(CC(=O)OC2CCCCC2)c(=O)c2cc3sccc3n12` [CBK284045]: the viability at 28.5 h, 10 µM was determined as 80.8%.
The same measure, in the same setting: in the case of `O=C(NC1(c2ccccc2)CC1)c1cccc(-n2cnnc2)c1` [CBK282779] it was 99.1%.
Still for that read-out and setting: as for `O=C1CN(Cc2ccc(Cl)cc2)CCO1` [CBK023036C], the figure is 88.7%; as for `Cn1c(=O)c2c(nc(NCCOCCO)n2C)n(C)c1=O` [CBK288164], 98.2%; as for `Cc1ccc(-c2nc3ncccc3o2)cc1NC(=S)NC(=O)c1ccc(-c2cccc([N+](=O)[O-])c2)o1` [CBK268294], 102%.
On the same count and under the same terms, as for `Cc1nn(C(C)CC(=O)NC2CCCOC2)c(C)c1C` (stereo not drawn) [CBK283133], the figure is 112%.
For `O=C(Cc1c[nH]c2ccccc12)N1CCC2(CCCN(C(=O)c3c(F)cccc3F)C2)C1` (stereo not drawn) [CBK131605], the viability at 28.5 h, 10 µM came out at 85.8%.
The same measure, in the same setting: as for `CN(C)C(=O)c1cccc(-c2nccnc2NCc2cccc([N+](=O)[O-])c2)c1` [CBK036651], the figure is 94.3%.
On the same count and under the same terms, as for `CC(=O)NCCNC(=O)c1cc(Br)c[nH]1` [CBK297767], the figure is 88.3%; as for `CS(=O)(=O)NC1CCN(c2nc(C(=O)O)nc3ccccc23)CC1` [CBK304316N], 105%; as for `CCc1nnc(NC(=O)CSc2nc3c([nH]2)c(=O)n(C)c(=O)n3C)s1` [CBK025840], 113%.
Same read-out and setting: in the case of `CCOC(=O)N1CCN(CC(=O)N2c3ccccc3CCc3ccccc32)CC1` [CBK268744G] it was 111%; in that of `N#Cc1ccc(CSc2cccc(F)c2)cc1` [CBK002918], 109%.
For the molecule `CCc1nc(CNc2ccc(NC(C)=O)cc2Cl)cs1` [CBK305103], the viability at 28.5 h, 10 µM turned out to be 102%.
For `O=C(O)/C=C/c1cn([C@@H]2O[C@H](CO)[C@H](O)C2O)c(=O)[nH]c1=O` (stereo partly drawn) [CBK201270], the viability at 28.5 h, 10 µM was determined as 96.7%.
The same measure, in the same setting: in the case of `Cc1ccc(Cl)cc1C(=O)N[C@H]1C[C@@H](c2nnc(CO)n2C2CC2)C1` [CBK306746] it was 92.8%; in that of `CCOc1ccc(CN(C)C(C)C(=O)Nc2cc(C)no2)cc1` (stereo not drawn) [CBK305607], 96.6%.
The same measure, in the same setting: in the case of `CN(C)CC(=O)NCc1ccc(-c2nc(-c3ccc(C#N)cc3)cnc2N)cc1` [CBK116506] it was 92%.
Same read-out and setting: in the case of `COc1ccc(-n2nc3cc(C)c(NC(=O)c4ccc(-c5ccc([N+](=O)[O-])cc5OC)o4)cc3n2)cc1` [CBK263766] it was 99.3%; in that of `COc1ccc(/N=C(/Nc2cccc(C(F)(F)F)c2)SC)cc1` [CBK018896I], 98.4%.
As to `Cc1onc(-c2ccccc2)c1C(=O)NNC(=S)NC(=O)c1ccc(Cl)cc1` [CBK267493], the viability at 28.5 h, 10 µM stood at 91.1%.
The same measure, in the same setting: as for `Cc1sc(NC(=S)NC(=O)C(C)(C)C)c(C(N)=O)c1C` [CBK268943], the figure is 97.1%; as for `COc1ccccc1CC(=O)N1CCC(c2onc3c2CCC3)CC1` [CBK284464], 99.2%.
Still for that read-out and setting: as for `N[C@@H]1CCCN(Cc2ccncc2)[C@H]1c1ccccc1F` [CBK283459], the figure is 88.4%.
Still for that read-out and setting: as for `Cc1nn(C)cc1CN1CCN(CC2(c3ccccc3)CC2)CC1` [CBK282721], the figure is 105%; as for `COc1cc(C2N(Cc3ccccc3)CCCN2Cc2ccccc2)c([N+](=O)[O-])cc1OC` [CBK265224], 88.2%; as for `C=Cn1cc(CN2CCCC(c3cc4cccnc4[nH]3)C2)c(C)n1` (stereo not drawn) [CBK284944], 115%.
Turning to `NC(=O)C1(N2CCCCC2)CCN(C(=S)Nc2ccc(S(N)(=O)=O)cc2)CC1` [CBK265900], the viability at 28.5 h, 10 µM is 90.5%.
On the same count and under the same terms, as for `O=S(=O)(c1ccc(-c2cncc(-c3ccc(O)cc3)n2)cc1F)N1CCOCC1` [CBK126903], the figure is 94.3%; as for `CCNc1nc(-c2cccc(/C=C/C(=O)O)c2)cn2ccnc12` [CBK066373], 88.5%; as for `Cc1ccc2n1CCN(C(=O)c1cc(-c3ccccn3)n[nH]1)C2C(C)C` (stereo not drawn) [CBK282447], 101%.
The same measure, in the same setting: in the case of `COc1ccc(OC)c(S(=O)(=O)N2CCN(c3ncccn3)CC2)c1` [CBK008662] it was 92.7%; in that of `Cc1cc(C(=O)NC(C)Cn2nc(C)cc2C)c2cccc(C)c2n1` (stereo not drawn) [CBK281635], 91.4%.
Take `CC(C)(C)OC(=O)NCc1ccc(-c2nnc(CC(=O)O)o2)cc1` [CBK169899D]: the viability at 28.5 h, 10 µM worked out at 96.5%.
On the same count and under the same terms, in the case of `Cc1nc2ccccc2c(O)c1CN1CCN(C)CC1` [CBK027922] it was 119%; in that of `Cc1nc(C2CCN(C(=O)c3ccccn3)CC2)c2sccn12` [CBK282238], 91.6%.
As to `O=[N+]([O-])c1cc(S(=O)(=O)Nc2cccc(-c3cnco3)c2)ccc1Cl` [CBK067125], the viability at 28.5 h, 10 µM came to 95.7%.
On the same count and under the same terms, as for `CCOc1ccc(S(=O)(=O)NCCOC)cc1Cl` [CBK270251], the figure is 91.5%; as for `OC1CC(c2cc(F)ccc2F)N(CCc2ccncc2)C1` (stereo not drawn) [CBK305106], 87.2%; as for `COc1cccc(Oc2nccnc2-c2ccsc2)c1` [CBK106762], 92.1%.
